Experimental data published in publication PMC4550094 (Journal of biomolecular screening, 2013).
Values joined by “and” are separate entries in the source; they are usually repeats but may differ in a detail not shown here. Equal values may be shown once. Read-outs that look alike come from different tables or passages of the source.

Tests used:
HepG2 cells [1] = assay: LipidTOX Red PLD assay, qHTS, 1536-well high-content imaging; assay type: cell-based, Human; settings: for PLD induction (result in words): HepG2, primary screen and cherry-pick confirmation; for EC50: Homo sapiens; for EC50 / Primary Screen Efficacy: HepG2, 24 h; for Primary Screen Efficacy: LOPAC primary qHTS, % of PLD induction by 19.16 µM amiodarone
HepG2 cells [2] = assay: CellTiter-Glo cell viability assay; assay type: cell-based, Human; settings: for Cell Viability IC50 / Cell Viability Efficacy (maximum inhibition of cell viability): HepG2, 24 h treatment, mean ± SD of three experiments; for IC50: Homo sapiens, HepG2, 24 h, read-out: Cell Viability IC50
I13-35 cells = settings: read-out: Literature-Reported EC50, cited from earlier work
HepG2 cells [3] = settings: cited from earlier work
[4] = read-out: Confirmation EC50 (PLD induction)
[5] = read-out: Primary Screen EC50 (PLD induction)

Molecule	PLD induction (result in words) (HepG2 cells [1])	EC50 (HepG2 cells [1]; [4])	EC50 (HepG2 cells [1]; [5])	Cell Viability Efficacy (maximum inhibition of cell viability) (HepG2 cells [2])	further results
COc1ccccc1N1CCN(CCCCN2C(=O)c3ccccc3C2=O)CC1 [NAN-190]	significantly induced PLD formation	2 ± 0.3 µM	2.2 µM		Cell Viability IC50 (HepG2 cells [2]): Inactive
CC(CCc1ccccc1)NCC(O)c1ccc(O)c(C(N)=O)c1 (stereo not shown) [Labetalol]		24.8 ± 4.9 µM	12.6 µM		
CC(CN1c2ccccc2Sc2ccccc21)N(C)C (stereo not shown) [promethazine]	positive				
CN1CCN(C2=Nc3ccccc3Oc3ccc(Cl)cc32)CC1 [lozapine]	positive				
COc1cc2nc(N3CCN(C(=O)OCc4ccccc4)[C@H](C(=O)NC(C)(C)C)C3)nc(N)c2cc1OC [L-765,314]				115.2±0.3%	Primary Screen Efficacy (HepG2 cells [1]): 54.1%
CN(C)CCCC1(c2ccc(F)cc2)OCc2cc(C#N)ccc21 (stereo not shown) [Citalopram]		27.5 ± 3.1 µM	10 µM		EC50 (I13-35 cells; I13-35 cells): 38 µM
CC12CC3CC(C)(C1)CC(N)(C3)C2 [Memantine]		29 ± 1.7 µM	12.6 µM		EC50 (I13-35 cells; I13-35 cells): 93.7 µM
OCCN1CCN(CCCN2c3ccccc3C=Cc3ccccc32)CC1 [opipramol]	identified as novel PLD inducers				
CC(N)Cc1c[nH]c2ccc(OCc3cccs3)cc12 (stereo not shown) [BW 723C86]				37.7±11.9%	Primary Screen Efficacy (HepG2 cells [1]): 62.2%
CN1CCC(=C2c3ccccc3C=Cc3ccccc32)CC1 [cyproheptadine]	identified as novel PLD inducers				
CC(C)[C@H]1c2ccc(F)cc2CC[C@@]1(CCN(C)CCCc1nc2ccccc2[nH]1)OC(=O)C1CC1 [NNC 55-0396]				106% and 106.3±4.3%	Primary Screen Efficacy (HepG2 cells [1]): 91.6%
CN(C)CCCN1c2ccccc2Sc2ccc(Cl)cc21 [Chlorpromazine]		5.4 ± 1.9 µM	10 µM		EC50 (I13-35 cells; I13-35 cells): 4.1 µM
CCOC(=O)N1CCC(=C2c3ccc(Cl)cc3CCc3cccnc32)CC1 [Loratadine]					Literature-Reported: Active at (concentration) (HepG2 cells [3]): Active at 16 µM
COc1ccc(NC(=O)c2ccc(-c3ccc(-c4noc(C)n4)cc3C)cc2)cc1N1CCN(C)CC1 [GR 127935]	significantly induced PLD formation	0.8 µM	6.3 µM	106.7±13.6%	IC50 (HepG2 cells [2]): 42.6 ± 10.3 µM
COc1ccccc1N1CCN(CCN(C(=O)c2ccc(F)cc2)c2ccccn2)CC1 [p-MPPF]	significantly induced PLD formation				
Cc1c2ccncc2c(C)c2c1[nH]c1ccccc12 [Ellipticine]		9 ± 3.3 µM	5 µM	102.3±4.0%	IC50 (HepG2 cells [2]): 29.8 ± 2.4 µM
COc1cc2nc(N3CCCN(C)CC3)nc(NC3CCN(Cc4ccccc4)CC3)c2cc1OC [BIX 01294]		1.6 ± 0.4 µM	3.5 µM	98% and 98.6±3.3%	IC50 (HepG2 cells [2]): 10 ± 1.6 µM
NC12CC3CC(CC(C3)C1)C2 [Amantadine]		3.9 ± 4.5 µM	0.9 µM		EC50 (I13-35 cells; I13-35 cells): 239 µM
CN1CCN(C2Cc3ccccc3Sc3ccc(Cl)cc32)CC1.O=C(O)/C=C\C(=O)O (stereo not shown) [Octoclothepin]				121.0±4.9%	Primary Screen Efficacy (HepG2 cells [1]): 135.0%
CN1CCN(c2nc3cc(C(F)(F)F)ccc3n3cccc23)CC1 [CGS-12066A]				56.7±13.3%	Primary Screen Efficacy (HepG2 cells [1]): 103.7%
CN(C)C/C=C(/c1ccc(Br)cc1)c1cccnc1 [Zimelidine]		27.4 ± 1.5 µM	14.1 µM		EC50 (I13-35 cells; I13-35 cells): 30.4 µM
OCCN1CCN(CCCN2c3ccccc3Sc3ccc(C(F)(F)F)cc32)CC1 [fluphenazine]	positive				
Cl.Cl.OCCN1CCN(CC/C=C2/c3ccccc3Sc3ccc(C(F)(F)F)cc32)CC1 [cis-(Z)-Flupenthixol]	significantly induced PLD formation			131.7±6.4%	Primary Screen Efficacy (HepG2 cells [1]): 37.3%

Molecule	PLD induction (result in words) (HepG2 cells [1])	EC50 (HepG2 cells [1]; [4])	EC50 (HepG2 cells [1]; [5])	Cell Viability Efficacy (maximum inhibition of cell viability) (HepG2 cells [2])	further results
COCC(=O)O[C@]1(CCN(C)CCCc2nc3ccccc3[nH]2)CCc2cc(F)ccc2[C@@H]1C(C)C [Mibefradil]		10.4 ± 3.3 µM	4.5 µM	97.0±3.3%	IC50 (HepG2 cells [2]): 25.2 ± 4.1 µM
CC(=O)N1CCN(c2ccc(OCC3COC(Cn4ccnc4)(c4ccc(Cl)cc4Cl)O3)cc2)CC1 (stereo not shown) [Ketoconazole]		5.4 ± 2 µM	2.8 µM		Literature-Reported: Active at (concentration) (HepG2 cells [3]): Active at 8.3 µM
aminobenzotropine	significantly induced PLD formation				
CN(C)CCCN1c2ccccc2CCc2ccccc21 [Imipramine]		20.8 ± 6.9 µM	10 µM		EC50 (I13-35 cells; I13-35 cells): 21 µM
CCN(CC)CCCC(C)Nc1ccnc2cc(Cl)ccc12 (stereo not shown) [Chloroquine]		23.6 µM	28.2 µM		EC50 (I13-35 cells): 11.8 µM
NC(N)=NC(=O)c1nc(Cl)c(N2CCCCCC2)nc1N [5-(N,N-hexamethylene) amiloride]				40.7±4.9%	Primary Screen Efficacy (HepG2 cells [1]): 52.8%
C[C@@H]1O[C@@H](O[C@H]2C[C@@H](O)[C@]3(CO)[C@H]4[C@H](O)C[C@]5(C)[C@@H](C6=CC(=O)OC6)CC[C@]5(O)[C@@H]4CC[C@]3(O)C2)[C@H](O)[C@H](O)[C@H]1O [Ouabain]		3 ± 1.8 µM	0.4 µM	43.6±1.1%	Cell Viability Efficacy (maximum inhibition of cell viability) (HepG2 cells [2]; listed as ouabain): 42%; IC50 (HepG2 cells [2]): 0.2 µM
CN(C)CCC=C1c2ccccc2C=Cc2ccccc21 [cyclobenzaprine]	identified as novel PLD inducers				
CC(C)NCC(O)COc1cccc2ccccc12 (racemic) [(±)-Propranolol]					Cell Viability IC50 (HepG2 cells [2]): Inactive
CN(C)CCCN1c2ccccc2Sc2ccccc21 [Promazine]		5.7 ± 1.9 µM	22.4 µM		EC50 (I13-35 cells; I13-35 cells): 5.3 µM
OC(CN1CCC(Cc2ccc(F)cc2)CC1)c1ccc(Cl)cc1 (stereo not shown) [Eliprodil]		9 ± 5 µM	10 µM	24.6±2.1%	IC50 (HepG2 cells [2]): 26.5 ± 2.2 µM
CSc1ccc2c(c1)C(N1CCN(C)CC1)Cc1ccccc1S2 (stereo not shown) [Methiothepin]				121.8±9.0%	Primary Screen Efficacy (HepG2 cells [1]): 76.9%
CN1C[C@H](CNC(=O)OCc2ccccc2)C[C@@H]2c3cccc4c3c(cn4C)C[C@H]21 [Metergoline]		5.8 ± 1.3 µM	2.5 µM	127.9±4.1%	IC50 (HepG2 cells [2]): 62.8 µM
CN1CCN(CCCN2c3ccccc3Sc3ccc(C(F)(F)F)cc32)CC1 [trifluoperazine]	positive				
CC(C)(C)[C@]1(O)CCN2C[C@H]3c4ccccc4CCc4cccc(c43)[C@@H]2C1 [(+)-Butaclamol]				47.2±18.3%	IC50 (HepG2 cells [2]): 47.8 ± 32.2 µM
CN(C)CC/C=C1/c2ccccc2Sc2ccc(Cl)cc21 [chlorprothixene]	significantly induced PLD formation				
CN1CCN(C2=Nc3cc(Cl)ccc3Nc3ccccc32)CC1 [Clozapine]					Literature-Reported: Active at (concentration) (HepG2 cells [3]): Active at 16 µM
CC(C(O)c1ccc(O)cc1)N1CCC(Cc2ccccc2)CC1 (stereo not shown) [Ifenprodil]		12.3 ± 6.7 µM	7.9 µM	25.5±0.8%	IC50 (HepG2 cells [2]): 21.1 ± 1.7 µM
CN1CCC[C@@H]1CCO[C@](C)(c1ccccc1)c1ccc(Cl)cc1 [clemastine]	significantly induced PLD formation				
CNCCCN1c2ccccc2CCc2ccccc21 [Desipramine]		5.1 ± 1.1 µM	11.2 µM		EC50 (I13-35 cells; I13-35 cells): 9.1 µM
CN(C)CCC=C1c2ccccc2COc2ccccc21 [Doxepin]					Literature-Reported: Active at (concentration) (HepG2 cells [3]): Active at 25 µM
CC[C@]1(O)C[C@@H]2CN(CCc3c([nH]c4ccccc34)[C@@](C(=O)OC)(c3cc4c(cc3OC)N(C)[C@H]3[C@@](O)(C(=O)OC)[C@H](OC(C)=O)[C@]5(CC)C=CCN6CC[C@]43[C@@H]65)C2)C1 [Vinblastine]		9.5 ± 5.5 µM	12.6 µM		Cell Viability IC50 (HepG2 cells [2]): Inactive
COc1ccc2c(c1)c(CCN1CCOCC1)c(C)n2C(=O)c1cccc(Cl)c1Cl [GW405833]				70.0±58.7%	Primary Screen Efficacy (HepG2 cells [1]): 49.4%
